Our source for the pKa and Ki values is ChEMBL document CHEMBL3351441, “The effect of pK(a) on pyrimidine/pyridine-derived histamine H4 ligands” (Bioorg Med Chem Lett, 2014).

The nature of series [1]: Dissociation constant, pKa of the compound by potentiometric titration. The format is physicochemical.
Series [2] is described as follows: Dissociation constant, pKa of the compound by Analiza PRO analyzer based method. It is filed as physicochemical.
The target of another series is Histamine H4 receptor (Homo sapiens, UniProt Q9H3N8). Nature of the series: Displacement of [3H]histamine from human recombinant histamine H4 receptor. (Loss of bound radioactivity is the signal in a displacement assay; it reports binding, not function.)

Where only a bound is given, the exact number is not on record here.

Chain of Histamine H4 receptor (Q9H3N8 whole entry): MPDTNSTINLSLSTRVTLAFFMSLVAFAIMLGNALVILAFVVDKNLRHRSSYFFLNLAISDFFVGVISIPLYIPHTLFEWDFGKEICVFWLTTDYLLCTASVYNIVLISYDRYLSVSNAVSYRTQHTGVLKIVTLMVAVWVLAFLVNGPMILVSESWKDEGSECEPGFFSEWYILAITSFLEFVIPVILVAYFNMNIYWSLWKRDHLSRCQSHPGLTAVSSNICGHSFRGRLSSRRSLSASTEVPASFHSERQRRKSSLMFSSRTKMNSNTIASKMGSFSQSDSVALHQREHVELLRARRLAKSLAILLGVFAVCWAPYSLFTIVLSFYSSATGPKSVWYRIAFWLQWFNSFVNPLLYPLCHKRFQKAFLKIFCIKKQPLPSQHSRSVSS

For `CCc1cc(N2CC[C@@H](NC)C2)nc(N)n1`, the pKa (as a rule, the pH at which an ionisable group is half protonated) in series [1] stood at 7.5; in series [2], 6.3.

In the case of `CN[C@@H]1CCN(c2ccnc(C(C)C)n2)C1`, the Ki (in general, a dissociation constant, usually derived from enzyme kinetics or from competition with a known ligand) on Histamine H4 receptor was 460 nM. Further, the pKa in series [2] is 6.5.

Turning to `CN[C@@H]1CCN(c2cc(CCC(F)(F)F)nc(N)n2)C1`, in series [2], the pKa turned out to be 7.8.

As to `CN[C@@H]1CCN(c2cc(N)nc(C(C)C)n2)C1`, the Ki on Histamine H4 receptor worked out at 320 nM. Further, the pKa in series [2] stood at 6.3.

Take `CN[C@@H]1CCN(c2cc(CC(F)(F)F)nc(N)n2)C1`: the Ki at Histamine H4 receptor amounted to 11 nM. In addition, the pKa in series [2] is 5.4.

For `Nc1nc(NC2CCCC2)cc(C2CCNCC2)n1`, at Histamine H4 receptor, the Ki was greater than 1000 nM. In series [2], this compound yielded a pKa of 6.1.

Consider `CN[C@@H]1CCN(c2cc(C(F)F)nc(N)n2)C1`, for which the Ki at Histamine H4 receptor was greater than 10000 nM. This compound also yielded a pKa in series [2] of 4.4.

With `CN[C@@H]1CCN(c2cc(CF)nc(N)n2)C1`, the Ki at Histamine H4 receptor came out at 126 nM. Further, in series [2], the pKa was found to be 5.5.

`CN[C@@H]1CCN(c2cc(C(F)(F)F)nc(N)n2)C1`: the Ki at Histamine H4 receptor is greater than 10000 nM. In addition, the pKa in series [1] and in series [2] was 3.1 in each case.

Compound `CN[C@@H]1CCN(c2ccnc(NC(C)C)c2)C1` displayed a pKa in series [2] of 6.6.

As to `CN[C@@H]1CCN(c2cc(N)nc(NC(C)C)c2)C1`, the Ki at Histamine H4 receptor was determined as 3.1 nM. This compound returned a pKa in series [2] of 6.5.

`Nc1cc(N2CCNCC2)cc(NC2CCCC2)n1`: the Ki at Histamine H4 receptor came to 2 nM. This compound showed a pKa in series [2] of 6.5.

For `Nc1nc(C2CCCC2)cc(N2CCNCC2)n1`, in series [2], the pKa is 7.9.

For the compound `CCc1cc(N2CC[C@@H](NC)C2)ncn1`, at Histamine H4 receptor, the Ki was 456 nM. Further, the pKa in series [1] was found to be 5.9.

`Nc1cc(C2CCNCC2)cc(NC2CCCC2)n1`: on Histamine H4 receptor, the Ki came to 50 nM. For the same compound, the pKa in series [2] came to 6.1.

For the compound `CN[C@@H]1CCN(c2cc(N)nc(NC(C)C)n2)C1`, in series [2], the pKa is 6.3.

Regarding `Nc1nc(C2CCCC2)cc(C2CCNCC2)n1`, the Ki at Histamine H4 receptor came out at 1550 nM. The pKa in series [2] is 4.5.

In series [2], `CN[C@@H]1CCN(c2ccnc(NC(C)C)n2)C1` showed a pKa of 6.4.

`CN[C@@H]1CCN(c2cc(CCl)nc(N)n2)C1`: the Ki on Histamine H4 receptor was found to be 92 nM. This compound also showed a pKa in series [2] of 6.

Consider `Nc1cc(C2CCNCC2)cc(OC2CCCC2)n1`, for which the Ki at Histamine H4 receptor was greater than 10000 nM. In series [2], this compound yielded a pKa of 4.7.
